Test [1] deals with Methicillin-resistant S. epidermidis (MRSE, RP62A). In words: MIC against MRSE. The test is classed as cell-based. The conditions noted are these: Staphylococcus epidermidis, MRSE; Gram +; 16 h, 37° C. As for the experimental part:
(§1) Minimum Inhibitory Concentrations (MICs) Against Bacteria.
(§2) The antimicrobial activity of the compounds was tested on the following six bacteria strains: K. pneumoniae (ATCC 13383), P. aeruginosa (ATCC27853), E. coli (ATCC 25922), vancomycin-resistant Enterococcus faecalis(ATCC 700802), Methicillin-resistant S. aureus (MRSA, ATCC 33591), Methicillin-resistant S. epidermidis (MRSE, RP62A). The procedures were followed as reported previously (Hancock et al., Immunobiology 2006, 211, 315-322). Briefly, a single colony of each bacterium was inoculated in 3 mL TSB medium and incubated overnight at 37° C. Then the bacteria culture was diluted at 1:100 and the bacteria were allowed to grow to mid-logarithmic phase. Next, 50 μL of 2-fold serial dilutions of compounds (0.1-25 μg/mL) were added the 96-well plate containing aliquots of 50 μL of bacteria suspension (1×10^6 CFU/mL) in each well. The mixture was incubated at 37° C. for 16 h, and their absorption at 600 nm wavelength was read on a Biotek Synergy HT microtiter plate reader. […] The experiments were repeated at least three times with duplicates each time. HC50 means the concentration causing 50% hemolysis.

The next test relates to S. aureus ATCC 33591. The test can be described thus: Thigh burden infection model in neutropenic mice. The test is classed as in vivo, CD-1 female mice. The settings on record: 5 mg/kg i.v. at 1 and 7 h after infection, thighs harvested at 25 h. The procedure: Neutropenic mice (n=4 per group) were inoculated in the posterior thigh muscles with S. aureus ATCC 33591 at 1×10^6 CFU per thigh and then treated with compounds 11 and 12 (5 mg/kg per dose) by i.v. bolus injection in the tail vein at 1 and 7 h after infection.
A thigh burden model was employed to evaluate the in vivo anti-infective activity of compounds 11 and 12, in which the thigh muscle of neutropenic mice was inoculated with S. aureus, followed by intravenous (i.v.) administration of corresponding compounds. All protocols and methods associated with animal experiments were approved by University of South Florida (USF) Institutional Animal Care and Use Committee. The in vivo experiment on the mouse model of the thigh burden infection with MRSA was conducted adapted from previously reported protocol. The CD-1 female mice which were 6 to 8 weeks old and around 25 g in weights were used for the study. Neutropenic Mice were induced by injecting cyclophosphamide (150 mg/kg) intraperitoneally twice at 4 and 1 days before bacterial inoculation. One MRSA colony from tryptic soy agar (TSA) cultures was allowed to grow in tryptic soy broth (TSB) overnight at 37° C., then 100 μL culture was withdrawn and diluted with TSB to a total volume of 4 mL, which was subsequently incubated at 37° C. for another 6 h. […] The formed colonies were counted to calculate CFU per thigh.

In the next test the test system is MRSA. The test can be described thus: Drug-resistance study, 14 passages, MRSA. The test is classed as cell-based, S. aureus. The settings on record: half-MIC exposure, 14 successive passages. As for the experimental part: (§3) Bacterial resistance tests were conducted using compound 12. The compound was incubated with either MRSA or E. Coli in the well at the concentration of half-MIC (½ MIC, 10^6 CFU/ml) every day and tested for their activity through 14 successive passages.

For test [2], the system named is E. coli. The test can be described thus: Time-kill study. The test is classed as cell-based. The conditions noted are these: 12.5 μg/mL. As for the experimental part: The killing activity was monitored for the first 2 h. The concentrations for compound 11 were 2×MIC, 4×MIC, and 8×MIC, respectively.
Time-kill studies were conducted to investigate the bacterial killing kinetics of compounds 11 and 12 by using E. Coli. Briefly, the bacteria […] grew to mid-logarithmic phase in TSB medium, from which the suspension (10^6 CFU/ml) was made. The suspension was incubated with different concentrations of 11 or 12 for 10 min, 30 min, 1 h and 2 h respectively. The mixtures were diluted by 10^2 to 10^4 fold and spread on TSB agar plates. After incubation at 37° C. overnight, the colonies on the plates were counted and plotted against the incubation time. […] Cell colonies were counted in agar plates at 12.5, 25, and 50 μg/mL. Compound 11 at the concentration of 12.5 or 25 μg/mL completely removed all bacteria in 2 hours, and at 50 μg/mL it completely removed bacteria in 0.5 hour. Compound 12 killed E. Coli completely in 0.5 hour at the concentration of 12.5 μg/mL.

Test [3] relates to E. coli. The test can be described thus: Drug-resistance study, 14 passages, E. coli. The test is classed as cell-based. The settings on record: half-MIC exposure, 14 successive passages. The procedure: as §3
Test [4] deals with Methicillin-resistant S. aureus (MRSA, ATCC 33591). The test can be described thus: MIC against MRSA. The test is classed as cell-based. The settings on record: Staphylococcus aureus; Gram +; 16 h, 37° C. The procedure:
as §1, §2

A further test concerns MRSA biofilm. In words: Biofilm formation inhibition (crystal violet), MRSA. The test is classed as cell-based, S. aureus. The procedure: (§4) Bacteria in biofilms are known to tolerate antibiotic treatment and are thus more difficult to eradicate than planktonic cells. Biofilms formed by MRSA and E. coli have frustrated the treatment of persistent bacterial infections. Compound 12 was evaluated for its ability to inhibit biofilm formation of MRSA and E. coli. Overnight grown bacteria were inoculated into fresh 10% of MHII broth at a ratio of 1:100. 100 μL of inoculated culture was incubated with appropriated amounts of compound 12 in wells of 96-well plate. The plate was incubated at 37° C. for overnight. Optical density of each well was recorded at the wavelength of 600 nm and then the biofilm biomass was recorded by the crystal violet method. Biofilm biomass was presented as CV OD/OD of growth. Relative biofilm biomass values were normalized by the biomass value of control (no addition of compound). Experiments were conducted in triplicate and the data were presented as mean±STDEV.

Test [5] relates to six bacteria strains (K. pneumoniae, P. aeruginosa, E. coli, VRE, MRSA, MRSE). The test can be described thus: Antimicrobial activity on the panel of six bacteria strains. The test is classed as cell-based. The procedure: as §1, §2
The test system of test [6] is K. pneumoniae (ATCC 13383). The test can be described thus: MIC against K. pneumoniae. The test is classed as cell-based. The conditions noted are these: Klebsiella pneumoniae, ATCC13383; Gram −; 16 h, 37° C. The procedure: as §1, §2
The next test deals with E. coli biofilm. In words: Biofilm formation inhibition (crystal violet), E. coli. The test is classed as cell-based. The settings on record: Escherichia coli. The procedure: as §4

Each structure is given as a SMILES string.

Usually MIC stands for the smallest concentration in the dilution series that meets the test's criterion for growth inhibition. The inhibition is the percentage by which the read-out fell short of the control. Lower therefore signals a weak effect.

Regarding `CCCCCCN1C(=N)N(CC(=O)Nc2cccc(NC(=O)CN3C[C@H](Cc4ccccc4)N(CCCCCC)C3=N)c2)C[C@@H]1Cc1ccccc1` [Compound 12], the MIC in test [1] was found to be 0.75 µg/mL; in test [4], 0.16 µg/mL; in test [5] (read-out: MIC toward most strains), 0.75 µg/mL; in test [6], 0.75 µg/mL. The “decrease in colony-forming unit (CFU) per thigh” value in the test with S. aureus ATCC 33591 is 5 log10 CFU. Also, the “MIC after 14 passages” value against MRSA and in the test with E. coli [3] was “virtually constant” in each case. For the same compound, the “time to completely remove all bacteria” value in the test with E. coli [2] is 0.5 h. Further, in the test with MRSA biofilm (0.39 μg/mL), the “inhibition of biofilm formation” value was “completely eradicated”. Besides, the inhibition at 0.19 µg/mL amounted to 85% in the test on MRSA biofilm (Staphylococcus aureus, 0.19 μg/mL) and 38% in the test on E. coli biofilm (0.19 μg/mL). Besides, the “antibacterial activity against the tested bacteria (in words)” value in test [5] was “potent and broad-spectrum activity”. This compound also returned an inhibition at 0.39 µg/mL in the test on E. coli biofilm (0.39 μg/mL) of roughly 90%.
